This is an account of results in patent US9176064B2, “Bisubstrate fluorescent probes for protein kinase CK2” (University of Tartu, priority 2012, dated 2015).

The Kd is the concentration at which binding is half-saturated. The term IC50 denotes the concentration needed to halve the response being measured.

For assay [1], the target named is T1, catalytic subunit of CK2 (CK2α) (Homo sapiens, UniProt P68400).
T1 sequence (P68400 1-335 limits assumed): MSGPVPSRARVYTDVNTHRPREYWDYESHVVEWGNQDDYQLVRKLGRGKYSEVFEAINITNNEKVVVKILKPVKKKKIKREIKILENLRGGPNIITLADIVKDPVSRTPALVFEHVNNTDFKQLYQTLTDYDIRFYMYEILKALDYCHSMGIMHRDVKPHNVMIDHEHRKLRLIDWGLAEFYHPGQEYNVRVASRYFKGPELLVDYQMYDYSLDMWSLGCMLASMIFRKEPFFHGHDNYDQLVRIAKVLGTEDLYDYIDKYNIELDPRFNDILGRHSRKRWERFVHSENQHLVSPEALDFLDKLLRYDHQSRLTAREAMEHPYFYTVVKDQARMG
The experiment in a line: Titration of fluorescent probe with CK2α (fluorescence anisotropy). Type of assay: binding.
Description: The binding of the fluorescent probe of formula VI to the catalytic subunit of protein kinase CK2 (CK2α) was studied at 0.2 nM concentration of the probe and 2-fold dilutions of CK2α in a buffer containing 50 mM HEPES (pH 7.5), 150 mM NaCl, 5 mM DTT, 0.1 mM EDTA and 0.005% tween 20 in 20 μl volumes in 384-well microplate. […] The change in fluorescence anisotropy vs kinase concentration was plotted and KD value was calculated by the application of nonlinear regression analysis to the relationship: A=Af(1−X1)+AbX1, where X1=QX2/[1+X2(Q−1)], where X2={P+KD+kE0−[(P+KD+kE0)^2−4PkE0]^1/2}/2P where A is measured anisotropy, Af is the anisotropy of free probe, Ab is the anisotropy of the probe-CK2α complex, Q is the ratio of fluorescence quantum yield of the probe-CK2α complex and the free probe, P is the concentration of the fluorescent probe, E0 is the nominal concentration of the kinase, k is the fraction of active kinase in enzyme preparation and KD is the dissociation constant of the probe-CK2α complex. Q value of 1.1 was calculated by dividing the total fluorescence intensity of the complex with the total fluorescence intensity of the free probe.

Assay [2] has as its target holoenzyme of protein kinase CK2 (CK2α + CK2β) (Homo sapiens, UniProt P68400). The experiment in a line: biochemical.
Description: The binding of the fluorescent probe to the holoenzyme of protein kinase CK2 was studied at 0.2 nM concentration of the probe, 2-fold dilutions of CK2α and 100 nM regulatory subunit of CK2 (CK2β) in a buffer containing 50 mM HEPES (pH 7.5), 150 mM NaCl, 5 mM DTT, 0.1 mM EDTA and 0.005% tween 20 in 20 μl volumes in 384-well microplate. […] The change in fluorescence anisotropy vs kinase concentration was plotted and KD-value was calculated by the application of nonlinear regression analysis to the relationship: A=Af(1−X1)+AbX1, where X1=QX2/[1+X2(Q−1)], where X2={P+KD+kE0−[(P+KD+kE0)^2−4PkE0]^1/2}/2P where A is measured anisotropy, Af is the anisotropy of free probe, Ab is the anisotropy of the probe-CK2 holoenzyme complex, Q is the ratio of fluorescence quantum yield of the probe-CK2 holoenzyme complex and the free probe, P is the concentration of the fluorescent probe, E0 is the nominal concentration of CK2α, k is the fraction of active kinase in enzyme preparation and KD is the dissociation constant of the probe-CK2 holoenzyme complex.
Assay [3] has as its target T1, catalytic subunit of CK2 (CK2α). The experiment in a line: Competition experiment: displacement of fluorescent probe VI from CK2α. The assay is classed as binding. The note with it: for Kd: calculated from I50 and KD of the probe.
[4] abbreviates: fluorescence anisotropy, HEPES pH 7.5, 30° C., probe X also by time gated luminescence, read-out: KD of probe-CK2α complex.
Setting [5] is: CK2α 2 nM, fluorescent probe VI 3 nM.
The mark [6] stands for this setting: CK2α 0.8 nM, fluorescent probe VI 0.5 nM.

Where a SMILES comes first, the peptide text is derived from it. [ ]: non-standard residue; d: D form. The star is where a group is joined. X2 = CN(C)c1ccc2c(-c3ccc(C(=O)*)cc3C(=O)[O-])c3ccc(=[N+](C)C)cc-3oc2c1; X1 = O=C(CCCCCCCn1cnc2c(Br)c(Br)c(Br)c(Br)c21)*

Sequence of holoenzyme of protein kinase CK2 (CK2α + CK2β) (P68400 whole entry): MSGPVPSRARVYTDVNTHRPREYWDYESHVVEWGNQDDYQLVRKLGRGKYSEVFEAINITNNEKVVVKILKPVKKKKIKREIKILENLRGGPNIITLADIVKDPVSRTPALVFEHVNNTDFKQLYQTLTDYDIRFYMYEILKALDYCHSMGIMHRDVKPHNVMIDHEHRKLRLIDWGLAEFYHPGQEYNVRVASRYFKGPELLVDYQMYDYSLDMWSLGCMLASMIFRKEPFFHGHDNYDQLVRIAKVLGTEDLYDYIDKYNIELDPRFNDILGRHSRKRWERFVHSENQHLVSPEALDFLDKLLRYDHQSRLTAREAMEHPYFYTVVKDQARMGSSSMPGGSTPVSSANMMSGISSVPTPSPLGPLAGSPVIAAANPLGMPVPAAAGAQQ
Sequence of holoenzyme of protein kinase CK2 (CK2α + CK2β) (P67870 whole entry partner): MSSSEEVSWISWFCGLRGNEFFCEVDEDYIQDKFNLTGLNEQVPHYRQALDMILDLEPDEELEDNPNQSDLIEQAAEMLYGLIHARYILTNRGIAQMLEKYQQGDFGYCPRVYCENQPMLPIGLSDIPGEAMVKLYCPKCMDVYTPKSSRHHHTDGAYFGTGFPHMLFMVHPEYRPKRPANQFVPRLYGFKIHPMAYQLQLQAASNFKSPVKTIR

For `CCN1/C(=C/C=C/C=C/C2=[N+](CC)c3ccc(S(=O)(=O)[O-])cc3C2(C)C)C(C)(CCCC(=O)NCCCC[C@H](NC(=O)[C@H](CC(=O)O)NC(=O)[C@H](CC(=O)O)NC(=O)[C@H](CC(=O)O)NC(=O)[C@H](CC(=O)O)NC(=O)[C@H](CC(=O)O)NC(=O)[C@H](CC(=O)O)NC(=O)CCCCCCCCOc2nc3cc(C(=O)O)ccc3c3cnccc23)C(=O)O)c2cc(S(=O)(=O)O)ccc21` (stereo partly shown) [probe IX], the Kd in assay [1] (setting [4]) is 0.02 nM.

Consider `CCN1/C(=C/C=C/C=C/C2=[N+](CC)c3ccc(S(=O)(=O)[O-])cc3C2(C)C)C(C)(CCCC(=O)NCCCC[C@H](NC(=O)[C@H](CC(=O)O)NC(=O)[C@H](CC(=O)O)NC(=O)[C@H](CC(=O)O)NC(=O)[C@H](CC(=O)O)NC(=O)[C@H](CC(=O)O)NC(=O)[C@@H](CC(=O)O)NC(=O)CCCCCCCn2cnc3c(I)c(I)c(I)c(I)c32)C(=O)O)c2cc(S(=O)(=O)O)ccc21` (stereo partly shown) [probe VIII], for which, in assay [1] (setting [4]), the dissociation constant (Kd) came to 0.4 nM.

On to `CN(C)c1ccc2c(-c3ccc(C(=O)NCCCC[C@H](NC(=O)[C@H](CC(=O)O)NC(=O)[C@H](CC(=O)O)NC(=O)[C@H](CC(=O)O)NC(=O)[C@H](CC(=O)O)NC(=O)[C@H](CC(=O)O)NC(=O)[C@@H](CC(=O)O)NC(=O)CCCCCCCn4cnc5c(Br)c(Br)c(Br)c(Br)c54)C(=O)O)cc3C(=O)[O-])c3ccc(=[N+](C)C)cc-3oc2c1` [probe VII] (X1-[dD]DDDDDK(X2)-OH), for which the Kd in assay [1] (setting [4]) turned out to be 0.4 nM.

Turning to `CCN1/C(=C/C=C/C=C/C2=[N+](CC)c3ccc(S(=O)(=O)[O-])cc3C2(C)C)C(C)(CCCC(=O)NCCCC[C@H](NC(=O)[C@H](CC(=O)O)NC(=O)[C@H](CC(=O)O)NC(=O)[C@H](CC(=O)O)NC(=O)[C@H](CC(=O)O)NC(=O)[C@H](CC(=O)O)NC(=O)[C@@H](CC(=O)O)NC(=O)CCCCCCCn2cnc3c(Br)c(Br)c(Br)c(Br)c32)C(=O)O)c2cc(S(=O)(=O)O)ccc21` (stereo partly shown) [probe VI], the Kd in assay [1] (setting [4]) worked out at 0.4 nM; in assay [2], 0.2 nM.

In turn, `CCN1/C(=C/C=C/C=C/C2=[N+](CC)c3ccc(S(=O)(=O)[O-])cc3C2(C)C)C(C)(CCCC(=O)NCCCC[C@H](NC(=O)[C@H](CC(=O)O)NC(=O)[C@H](CC(=O)O)NC(=O)[C@H](CC(=O)O)NC(=O)[C@H](CC(=O)O)NC(=O)[C@H](CC(=O)O)NC(=O)[C@@H](CC(=O)O)NC(=O)CCCCCCCn2ccc3ccc4n[se]nc4c32)C(=O)O)c2cc(S(=O)(=O)O)ccc21` (stereo partly shown) [probe X] showed a Kd in assay [1] of 10 nM.

With TBBI-AcOH, in assay [3] (setting [5]), the IC50 stood at 11500 nM and the equilibrium dissociation constant (Kd) is 1500 nM.

For TIBI-AcOH, in assay [3] (setting [6]), the IC50 amounted to 390 nM and the Kd was 122 nM.
